# From paper PMC7670682 (BMC Pharmacology & Toxicology, 2020)
# “Also recorded” adds a separate entry of the source. Read-outs that look alike come from different tables or passages of the source. Marks after values point to notes of the source that are not given here.
# How the values were obtained:
# OATP-B = test system: OATP-B; parameters: method as in PMID 16415120; settings: cited from earlier work
# [1] = cited from earlier work
# [2] = combined use with St. John’s wort, a CYP3A4 inducer; cited from earlier work
# in vivo = settings: male, Sprague Dawley, rat, po, 30 mg/kg
# CYP3A = settings: in vitro, different CYP3A substrates; read-out: IC50 of CYP3A inhibition; cited from earlier work
# [3] = after oral administration of imatinib; cited from earlier work
# [4] = intragastric administration of green tea, rats
# [5] = male, Sprague Dawley, rat, in vivo, po, 30 mg/kg
# [6] = metabolite, rats, imatinib 30 mg/kg IG + KTZ 75 mg/kg/day 3 days
# [7] = metabolite, rats, imatinib 30 mg/kg IG + h-GS 100 mg/kg/day 21 days
# [8] = metabolite, rats, imatinib 30 mg/kg IG + h-GS 100 mg/kg/day 21 days, vs imatinib only
# [9] = metabolite, rats, imatinib 30 mg/kg IG + h-GS 100 mg/kg/day 21 days, vs l-GS group
# [10] = metabolite, rats, imatinib 30 mg/kg IG + h-GS 100 mg/kg/day 21 days, when GS dose was doubled
# [11] = metabolite, rats, imatinib 30 mg/kg IG + h-GS and h-GT 100 mg/kg/day each 21 days
# [12] = metabolite, rats, imatinib 30 mg/kg IG + h-GS and h-GT 100 mg/kg/day each 21 days, vs imatinib only
# [13] = metabolite, rats, imatinib 30 mg/kg IG + h-GS and h-GT 100 mg/kg/day each 21 days, vs l-GS and l-GT group
# [14] = metabolite, rats, imatinib 30 mg/kg IG + h-GT 100 mg/kg/day 21 days
# [15] = metabolite, rats, imatinib 30 mg/kg IG + l-GS 50 mg/kg/day 21 days
# [16] = metabolite, rats, imatinib 30 mg/kg IG + l-GT 50 mg/kg/day 21 days
# [17] = metabolite, rats, imatinib 30 mg/kg IG only (control)
# [18] = rats, imatinib 30 mg/kg IG + KTZ 75 mg/kg/day 3 days
# [19] = rats, imatinib 30 mg/kg IG + h-GS 100 mg/kg/day 21 days
# [20] = rats, imatinib 30 mg/kg IG + h-GS and h-GT 100 mg/kg/day each 21 days
# [21] = rats, imatinib 30 mg/kg IG + h-GT 100 mg/kg/day 21 days
# [22] = rats, imatinib 30 mg/kg IG + l-GS 50 mg/kg/day 21 days
# [23] = rats, imatinib 30 mg/kg IG + l-GS and l-GT 50 mg/kg/day each 21 days
# [24] = rats, imatinib 30 mg/kg IG + l-GT 50 mg/kg/day 21 days
# [25] = rats, imatinib 30 mg/kg IG only (control)
compound,measurement,setting,value
Oc1cc(O)c2c(c1)O[C@H](c1ccc(O)c(O)c1)[C@@H](O)C2 [(+)-catechin],inhibition of estrone-3-sulfate uptake,OATP-B; concentration of 100 mM,31.7%
"Oc1cc(O)c2c(c1)O[C@H](c1ccc(O)c(O)c1)[C@H](O)C2 [EC, (−)-epicatechin]",bioavailability,[1]; [4],31.2%
same,inhibition of estrone-3-sulfate uptake,OATP-B; concentration of 10 mM,27.2%
"Oc1cc(O)c2c(c1)O[C@H](c1cc(O)c(O)c(O)c1)[C@H](O)C2 [EGC, (−)-epigallocatechin]",bioavailability,"[1]; rat, in vivo, po",13.7%
same,inhibition of estrone-3-sulfate uptake,OATP-B; concentration of 100 mM,29.1%
"O=C(O[C@@H]1Cc2c(O)cc(O)cc2O[C@@H]1c1cc(O)c(O)c(O)c1)c1cc(O)c(O)c(O)c1 [EGCG, (−)-epigallocatechin-3-gallate]",bioavailability,[1]; [4],0.1%
same,inhibition of estrone-3-sulfate uptake,OATP-B; concentration of 10 mM,29.5%
"Cc1ccc(NC(=O)c2ccc(CN3CCN(C)CC3)cc2)cc1Nc1nccc(-c2cccnc2)n1 [Imatinib, reference compound]",AUC0∞,[5],"105,160.8 ± 75,643.2 ng^.h/mL"
same,tmax,[5],4.8 ± 2.3 h
same,decrease in t0.5,"rats, imatinib 30 mg/kg IG + h-GS 100 mg/kg/day 21 days, vs imatinib only",↓ 16.1%*
same,decrease in t0.5,"rats, imatinib 30 mg/kg IG + h-GS 100 mg/kg/day 21 days, vs imatinib only, listed as imatinib",16.1%
same,decrease in t0.5,"rats, imatinib 30 mg/kg IG + h-GS and h-GT 100 mg/kg/day each 21 days, vs imatinib only",21.9%
same,decrease in t0.5,"rats, imatinib 30 mg/kg IG + h-GS and h-GT 100 mg/kg/day each 21 days, vs l-GS and l-GT group",23.1%
same,decrease in t0.5,"rats, imatinib 30 mg/kg IG + h-GT 100 mg/kg/day 21 days, vs imatinib only",↓ 15.8%*
same,decrease in t0.5,"rats, imatinib 30 mg/kg IG + h-GT 100 mg/kg/day 21 days, vs imatinib only, listed as imatinib",15.8%
same,increase in t0.5,"rats, imatinib 30 mg/kg IG + l-GS and l-GT 50 mg/kg/day each 21 days, vs l-GS group",1.1 fold
same,increase in t0.5,"rats, imatinib 30 mg/kg IG + l-GS and l-GT 50 mg/kg/day each 21 days, vs l-GT group",1.3 fold
same,reduction of the area under the curve (AUC),[2],30%
same,Cmax,in vivo,6400 ± 3160 ng/mL
Cc1ccc(NC(=O)c2ccc(CN3CCNCC3)cc2)cc1Nc1nccc(-c2cccnc2)n1 [N-desmethyl imatinib],t0.5,[6],9.9 ± 4.4 h
same,tmax,[6],7.5 ± 1.0 h
same,MRT,[7],9.5 ± 1.0 h
same,t0.5,[7],7.1 ± 0.9 h
same,tmax,[7],4.7 ± 2.0 h
same,decrease in AUC0∞,[8],73.0%
same,decrease in Cmax,[8],67.8%
same,increase in CL/F,[8],3.7 fold
same,increase in Vz/F,[8],4.1 fold
same,decrease in AUC0∞,[9],58.5%
same,decrease in Cmax,[9],63.3%
same,increase in CL/F,[9],2.5 fold
same,increase in Vz/F,[9],2.9 fold
same,decrease in AUC0∞,[10],~ 2 fold
same,decrease in Cmax,[10],~ 2 fold
same,MRT,[11],11.9 ± 2.3 h
same,tmax,[11],4.8 ± 2.2 h
same,increase in t0.5,"metabolite, rats, imatinib 30 mg/kg IG + h-GS and h-GT 100 mg/kg/day each 21 days, vs h-GS group",1.5 fold
same,increase in t0.5,"metabolite, rats, imatinib 30 mg/kg IG + h-GS and h-GT 100 mg/kg/day each 21 days, vs h-GT group",1.4 fold
same,decrease in AUC0∞,[12],72.1%
same,decrease in Cmax,[12],71.5%
same,increase in CL/F,[12],5.3 fold
same,increase in Vz/F,[12],8.7 fold
same,increase in t0.5,[12],1.6 fold
same,decrease in AUC0∞,[13],75.8%
same,decrease in Cmax,[13],71.9%
same,increase in CL/F,[13],6.5 fold
same,increase in Vz/F,[13],8.8 fold
same,increase in t0.5,[13],1.3 fold
same,increase in the terminal half-life,"metabolite, rats, imatinib 30 mg/kg IG + h-GS and h-GT 100 mg/kg/day each 21 days, vs other high dose groups (h-GS or h-GT, not specified)",1.4 fold
same,MRT,[14],11.9 ± 2.6 h
same,tmax,[14],5.2 ± 2.6 h
same,Cmax,[15],408.8 ± 113.6 ng/mL
same,t0.5,[15],6.2 ± 0.5 h
same,tmax,[15],4.2 ± 1.0 h
same,tmax,"metabolite, rats, imatinib 30 mg/kg IG + l-GS and l-GT 50 mg/kg/day each 21 days",5.8 ± 2.6 h
same,effect on pharmacokinetics,"metabolite, rats, imatinib 30 mg/kg IG + l-GS and l-GT 50 mg/kg/day each 21 days, vs imatinib only",no significant effects; also recorded: not significantly affected
same,increase in AUC0∞,"metabolite, rats, imatinib 30 mg/kg IG + l-GS and l-GT 50 mg/kg/day each 21 days, vs l-GS group",1.8 fold
same,increase in AUC0∞,"metabolite, rats, imatinib 30 mg/kg IG + l-GS and l-GT 50 mg/kg/day each 21 days, vs l-GT group",6.1 fold
same,MRT,[16],11.2 ± 1.8 h
same,t0.5,[16],8.0 ± 0.7 h
same,tmax,[16],5.3 ± 1.6 h
same,AUC0∞,[17],7143.3 ± 2165.3 ng^.h/mL
same,Cmax,[17],465.6 ± 94.0 ng/mL
same,MRT,[17],11.6 ± 3.8 h
same,t0.5,[17],6.6 ± 0.5 h
same,tmax,[17],6.7 ± 2.1 h
same,differences in pharmacokinetic parameters,"metabolite, rats, imatinib 30 mg/kg IG, l-GT vs h-GT group",no significant differences
same,AUC0∞ metabolite/AUC0∞ drug percentage,[18],3.3%
same,Cmax (metabolite) /Cmax (drug) percentage,[18],3.4%
same,AUC0∞ metabolite/AUC0∞ drug percentage,[19],6.6%
same,Cmax (metabolite) /Cmax (drug) percentage,[19],6.0%
same,AUC0∞ metabolite/AUC0∞ drug percentage,[20],4.0%
same,Cmax (metabolite) /Cmax (drug) percentage,[20],3.6%
same,AUC0∞ metabolite/AUC0∞ drug percentage,[21],6.0%
same,Cmax (metabolite) /Cmax (drug) percentage,[21],5.3%
same,AUC0∞ metabolite/AUC0∞ drug percentage,[22],7.8%
same,Cmax (metabolite) /Cmax (drug) percentage,[22],7.9%
same,AUC0∞ metabolite/AUC0∞ drug percentage,[23],5.5%
same,Cmax (metabolite) /Cmax (drug) percentage,[23],5.0%
same,AUC0∞ metabolite/AUC0∞ drug percentage,[24],3.5%
same,Cmax (metabolite) /Cmax (drug) percentage,[24],3.2%
same,AUC0∞ metabolite/AUC0∞ drug percentage,[25],6.8%
same,Cmax (metabolite) /Cmax (drug) percentage,[25],7.3%
same,elimination half-life,[3],40 h
(−)-epicatechin-3-gallate [ECG],inhibition of estrone-3-sulfate uptake,OATP-B; concentration of 10 mM,66.6%
